Read-outs that look alike come from different tables or passages of the source.
Experiments:
PI3Kα = target: T1, PI3Kα (Homo sapiens, UniProt P42336); assay: In vitro test of enzyme activity (ADP-Glo lipokinase), PI3K alpha; assay type: biochemical; settings: 40 μM ATP, 50 μM PIP2:3PS, 120 min
T1 construct: purchased Millipore 14-602-K
Protocol: (§1) 1. In Vitro Test of Enzyme Activity
(§2) The lipokinase reaction was carried out under the conditions of a suitable substrate and ATP, followed by two steps to detect the kinase activity with the ADP-Glo™ kit. The first step was terminating the kinase reaction, wherein the remaining ATP was completely removed and only ADP was left; the second step was adding kinase detection reagents to convert ADP to ATP, accompanied by luciferin/luciferase reaction. Finally, the output value of fluorescence value was converted into kinase activity.
(§3) Experimental materials and equipments:
(§4) 2. Kit: ADP-Glo™ Lipokinase and PIP2:3PS Kit (Promega # V1792)
(§5) The kit contains: 1 mM PIP2:3PS, 10× lipid dilution buffer, 1 M magnesium chloride, 10 mM ATP, 10 mM ADP, ADP-Glo reagent, detection buffer and detection substrate.
(§6) 3. Reaction plate: OptiPlate-384, white and transparent (PerkinElmer #6007299).
(§7) 1. 10× reaction buffer: 500 mM HEPES, pH 7.5, 500 mM NaCl, 9 mM MgCl2; BSA: 10% stock solution, homemade.
(§8) 2. Final test system conditions: 1× reaction system: 50 mM HEPES, 50 mM NaCl, 3 mM MgCl2, 0.01% BSA (freshly prepared on the day of the experiment), 1% DMSO (v/v)+/−compound
(§9) 3. Reaction system: 3 μL mixture of the enzyme and the substrate (1:1)+2 μL ATP/MgCl2 mixture+5 μL ADP-Glo reagent+10 μL detection reagent.
(§10) The detailed experimental procedures are as follows:
(§11) 1. Compound dilution: 50 nL 100×compound/DMSO was transferred to the test well plate with Echo. • For PI3Kα, the compound was diluted three-fold from the highest concentration of 0.111 mM for a total of 10 concentrations. • For PI3Kβ/PI3Kδ/PI3Kγ, the compound was three-fold diluted from the highest concentration of 1.11 mM for a total of 10 concentrations.
(§12) (1) The compound to be tested was prepared and 50 nL of 100 plus compound solution or DMSO was added to the corresponding well plate.
(§13) (2) 3.33 plate reaction buffer was prepared.
(§14) (3) 3.33 solution PIP2:3PS was prepared, PIP2:3PS was thawed for at least 1 minute before use.
(§15) (4) 2.5 mM containing 5.25 mM MgCl2 was prepared.
(§16) (5) 3.33 PI3Kα/PI3Kβ/PI3Kδ/PI3Kγ solution was prepared.
(§17) (6) The lipokinase solution and the PIP2:3PS solution were mixed in a volume ratio of 1:1.
(§18) (7) 3.33: lipokinase buffer and PIP2:3PS solution were mixed in a volume ratio of 1:1.
(§19) (8) 3 μL of buffer solution and PIP2:3PS were added to the first and the second columns of the well plate.
(§20) (9) 3 μL of the mixed solution of the enzyme and PIP2:3PS was added to the wells except the first and the second columns, centrifuged for 10 seconds (1000 rpm) and incubated at 23° C. for 20 minutes.
(§21) (10) 2 μL […] was added and well was shaken.
(§22) (11) The well plate was covered and shaken for about 30 s, then the well plate was incubated at 23° C. for 2 hours.
(§23) (12) 5 μL of ADP-Glo reagent containing 10 mM MgCl2 was added.
(§24) (13) The well plate was centrifuged at 1000 rpm for 10 seconds, and the well plate was then covered, shaken for about 30 seconds, and incubated at 23° C. for 60 minutes.
(§25) (14) 10 μL kinase detection reagent was added.
(§26) (15) The well plate was centrifuged at 1000 rpm for 10 seconds, and then incubated at 23° C. for 60 minutes.
(§27) (16) The fluorescence value was measured on the Envision instrument.

PI3Kγ = target: T2, PI3Kγ (Homo sapiens, UniProt P48736); assay: In vitro test of enzyme activity (ADP-Glo lipokinase), PI3K gamma; assay type: biochemical; settings: 25 μM ATP, 50 μM PIP2:3PS, 120 min
T2 construct: purchased Millipore 14-558-K
Protocol: as §1, §2, §3, §4, §5, §6, §7, §8, §9, §10, §11, §12, §13, §14, §15, §16, §17, §18, §19, §20, §21, §22, §23, §24, §25, §26, §27

PI3Kδ = target: T3, PI3Kδ (Homo sapiens, UniProt O00329); assay: In vitro test of enzyme activity (ADP-Glo lipokinase), PI3K delta; assay type: biochemical; settings: 40 μM ATP, 50 μM PIP2:3PS, 120 min
T3 construct: purchased Millipore 14-604-K
Protocol: as §1, §2, §3, §4, §5, §6, §7, §8, §9, §10, §11, §12, §13, §14, §15, §16, §17, §18, §19, §20, §21, §22, §23, §24, §25, §26, §27

PI3Kβ = target: T4, PI3Kβ (Homo sapiens, UniProt P42338); assay: In vitro test of enzyme activity (ADP-Glo lipokinase), PI3K beta; assay type: biochemical; settings: 40 μM ATP, 50 μM PIP2:3PS, 120 min
T4 construct: purchased Promega V1751
Protocol: as §1, §2, §3, §4, §5, §6, §7, §8, §9, §10, §11, §12, §13, §14, §15, §16, §17, §18, §19, §20, §21, §22, §23, §24, §25, §26, §27

[1] = system: phosphorylation of PI3K downstream protein Akt in MCF7 cells; assay: In vitro test of cells activity: ELISA of Akt phosphorylation in MCF7 cells; assay type: cell-based; settings: 2 h compound, insulin 10 μg/mL stimulation, pAkt ELISA, read-out: MCF7 Cell IC50
Protocol: 2. In vitro test of cells activity
By the method of ELISA, the inhibition level of the test compound on the phosphorylation of PI3K downstream protein Akt in the signaling pathway was determined in MCF7 cells line to reflect the cells activity of the compound.
Cell culture medium: complete cell culture medium (RPMI 1640+10% serum+1% L-glutamine+1% double antibody)
Serum-free medium (without serum, RPMI 1640+1% L-glutamine+1% double antibody)
The detailed procedures areas follows:
(1) MCF7 cells (ATCC® HTB-22™) were inoculated into a 96-well plate at 100 μL of cell complete medium per well (2.5*10^4 cells per well), and the cells were incubated at 37° C. and 5% CO2 for 24 hours.
(2) The complete cell culture medium was replaced with 100 μL of serum-free medium, and incubated for starvation overnight.
(3) The compound was prepared (The initial concentration of the compound is 1 mM, which was subjected to a three-fold dilution in 10 concentrations, and the compound of each concentration was then diluted 100-fold with serum-free medium). 25 μL of the diluted compound was added to the cells orifice plate.
(4) The cells were incubated at 37° C. and 5% CO2 for 2 hours.
(5) The cells in the well plate were stimulated with 10 μg/mL insulin (Sigma # I9278-5 mL), incubated for 30 minutes, and then centrifuged at 1000 rpm for 5 minutes at room temperature.
(6) 250 μL of 1× balanced salt solution (Invitrogen, #14065-056, 4° C., containing 1 mM/L Na3VO4) was added to each well to wash the cells once.
(7) 100 μL of lysis buffer (trimethylolaminomethane hydrochloride, Invitrogen, #15567-1000 ml) was added to each well, shaken at 4° C. for 60 minutes, and then centrifuged at 4000 rpm for 4 minutes.
(8) The following procedures were carried out according to the instructions of ELISA kit (TGR BioSciences # EKT002).

T2 sequence (P48736 whole entry): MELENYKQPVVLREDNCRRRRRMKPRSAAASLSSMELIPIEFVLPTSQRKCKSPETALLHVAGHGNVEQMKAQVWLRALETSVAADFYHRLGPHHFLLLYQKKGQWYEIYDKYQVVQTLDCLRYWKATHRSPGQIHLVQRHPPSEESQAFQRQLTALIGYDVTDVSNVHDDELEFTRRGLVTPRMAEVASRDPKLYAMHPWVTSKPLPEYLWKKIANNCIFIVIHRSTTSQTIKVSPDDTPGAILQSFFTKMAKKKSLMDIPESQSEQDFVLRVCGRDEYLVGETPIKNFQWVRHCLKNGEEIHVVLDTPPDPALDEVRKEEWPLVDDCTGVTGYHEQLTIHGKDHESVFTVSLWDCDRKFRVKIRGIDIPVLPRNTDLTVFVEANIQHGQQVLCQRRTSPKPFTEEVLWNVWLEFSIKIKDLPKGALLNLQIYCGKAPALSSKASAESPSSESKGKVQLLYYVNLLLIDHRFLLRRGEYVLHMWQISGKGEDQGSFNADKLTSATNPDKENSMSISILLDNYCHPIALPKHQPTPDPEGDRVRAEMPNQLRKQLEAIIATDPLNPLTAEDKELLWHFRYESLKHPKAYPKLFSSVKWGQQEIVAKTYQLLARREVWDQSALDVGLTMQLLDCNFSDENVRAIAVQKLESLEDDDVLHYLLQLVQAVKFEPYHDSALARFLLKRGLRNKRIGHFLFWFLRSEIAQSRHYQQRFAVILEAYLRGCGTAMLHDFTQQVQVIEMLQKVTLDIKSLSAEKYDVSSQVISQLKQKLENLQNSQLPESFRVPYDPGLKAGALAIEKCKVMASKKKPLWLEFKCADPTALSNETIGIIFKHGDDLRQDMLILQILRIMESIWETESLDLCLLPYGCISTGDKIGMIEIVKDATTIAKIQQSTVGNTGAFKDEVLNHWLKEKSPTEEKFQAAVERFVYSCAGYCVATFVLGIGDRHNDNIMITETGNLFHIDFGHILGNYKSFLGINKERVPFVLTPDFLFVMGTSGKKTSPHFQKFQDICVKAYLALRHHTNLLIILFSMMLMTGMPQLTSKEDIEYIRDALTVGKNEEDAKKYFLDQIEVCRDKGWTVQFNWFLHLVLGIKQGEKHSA
T4 sequence (P42338 whole entry): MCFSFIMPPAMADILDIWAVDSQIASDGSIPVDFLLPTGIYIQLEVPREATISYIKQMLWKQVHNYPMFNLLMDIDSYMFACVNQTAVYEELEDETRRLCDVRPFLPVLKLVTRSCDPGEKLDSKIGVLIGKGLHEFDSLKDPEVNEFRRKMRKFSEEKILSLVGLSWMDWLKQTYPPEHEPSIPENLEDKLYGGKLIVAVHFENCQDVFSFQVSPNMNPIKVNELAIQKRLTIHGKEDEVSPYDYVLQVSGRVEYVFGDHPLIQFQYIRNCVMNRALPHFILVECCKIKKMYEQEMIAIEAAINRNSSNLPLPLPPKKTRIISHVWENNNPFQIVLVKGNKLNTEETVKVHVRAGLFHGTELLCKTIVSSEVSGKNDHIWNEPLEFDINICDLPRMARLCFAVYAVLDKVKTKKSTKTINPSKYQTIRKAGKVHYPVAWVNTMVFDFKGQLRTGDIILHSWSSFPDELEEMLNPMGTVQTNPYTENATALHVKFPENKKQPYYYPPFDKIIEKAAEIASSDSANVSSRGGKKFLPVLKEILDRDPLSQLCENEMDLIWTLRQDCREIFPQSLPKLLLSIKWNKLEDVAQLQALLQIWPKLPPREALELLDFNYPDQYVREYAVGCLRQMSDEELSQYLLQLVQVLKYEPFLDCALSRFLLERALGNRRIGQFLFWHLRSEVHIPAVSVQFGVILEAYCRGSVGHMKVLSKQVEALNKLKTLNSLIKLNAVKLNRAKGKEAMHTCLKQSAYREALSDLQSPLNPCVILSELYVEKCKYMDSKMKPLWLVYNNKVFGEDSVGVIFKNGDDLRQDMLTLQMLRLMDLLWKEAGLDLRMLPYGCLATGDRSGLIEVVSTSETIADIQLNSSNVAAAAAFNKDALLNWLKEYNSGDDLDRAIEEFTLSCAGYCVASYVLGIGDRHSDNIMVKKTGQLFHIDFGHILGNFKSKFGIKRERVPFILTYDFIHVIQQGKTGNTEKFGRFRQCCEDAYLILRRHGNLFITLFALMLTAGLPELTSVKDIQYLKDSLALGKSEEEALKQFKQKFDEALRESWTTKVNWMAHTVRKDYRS
T4 sequence (P27986 whole entry partner): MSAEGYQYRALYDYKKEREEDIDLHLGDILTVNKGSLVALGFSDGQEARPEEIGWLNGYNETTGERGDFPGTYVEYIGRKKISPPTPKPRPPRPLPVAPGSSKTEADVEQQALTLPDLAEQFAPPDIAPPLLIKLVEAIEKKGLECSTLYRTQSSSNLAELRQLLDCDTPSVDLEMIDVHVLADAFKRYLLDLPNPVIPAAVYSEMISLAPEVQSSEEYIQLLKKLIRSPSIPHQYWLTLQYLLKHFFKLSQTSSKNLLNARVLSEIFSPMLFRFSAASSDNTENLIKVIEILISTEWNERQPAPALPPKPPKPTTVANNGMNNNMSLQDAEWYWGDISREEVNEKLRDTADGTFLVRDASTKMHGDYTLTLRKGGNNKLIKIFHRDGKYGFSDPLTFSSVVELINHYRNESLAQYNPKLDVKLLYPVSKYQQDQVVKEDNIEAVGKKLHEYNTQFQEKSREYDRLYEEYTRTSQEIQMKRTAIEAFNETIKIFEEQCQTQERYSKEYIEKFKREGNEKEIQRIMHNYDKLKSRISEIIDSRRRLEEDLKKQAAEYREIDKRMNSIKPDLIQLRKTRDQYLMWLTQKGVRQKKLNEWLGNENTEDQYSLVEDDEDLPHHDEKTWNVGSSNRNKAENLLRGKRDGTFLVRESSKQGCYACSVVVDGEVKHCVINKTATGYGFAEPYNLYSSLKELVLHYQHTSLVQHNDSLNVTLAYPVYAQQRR
T3 sequence (O00329 whole entry): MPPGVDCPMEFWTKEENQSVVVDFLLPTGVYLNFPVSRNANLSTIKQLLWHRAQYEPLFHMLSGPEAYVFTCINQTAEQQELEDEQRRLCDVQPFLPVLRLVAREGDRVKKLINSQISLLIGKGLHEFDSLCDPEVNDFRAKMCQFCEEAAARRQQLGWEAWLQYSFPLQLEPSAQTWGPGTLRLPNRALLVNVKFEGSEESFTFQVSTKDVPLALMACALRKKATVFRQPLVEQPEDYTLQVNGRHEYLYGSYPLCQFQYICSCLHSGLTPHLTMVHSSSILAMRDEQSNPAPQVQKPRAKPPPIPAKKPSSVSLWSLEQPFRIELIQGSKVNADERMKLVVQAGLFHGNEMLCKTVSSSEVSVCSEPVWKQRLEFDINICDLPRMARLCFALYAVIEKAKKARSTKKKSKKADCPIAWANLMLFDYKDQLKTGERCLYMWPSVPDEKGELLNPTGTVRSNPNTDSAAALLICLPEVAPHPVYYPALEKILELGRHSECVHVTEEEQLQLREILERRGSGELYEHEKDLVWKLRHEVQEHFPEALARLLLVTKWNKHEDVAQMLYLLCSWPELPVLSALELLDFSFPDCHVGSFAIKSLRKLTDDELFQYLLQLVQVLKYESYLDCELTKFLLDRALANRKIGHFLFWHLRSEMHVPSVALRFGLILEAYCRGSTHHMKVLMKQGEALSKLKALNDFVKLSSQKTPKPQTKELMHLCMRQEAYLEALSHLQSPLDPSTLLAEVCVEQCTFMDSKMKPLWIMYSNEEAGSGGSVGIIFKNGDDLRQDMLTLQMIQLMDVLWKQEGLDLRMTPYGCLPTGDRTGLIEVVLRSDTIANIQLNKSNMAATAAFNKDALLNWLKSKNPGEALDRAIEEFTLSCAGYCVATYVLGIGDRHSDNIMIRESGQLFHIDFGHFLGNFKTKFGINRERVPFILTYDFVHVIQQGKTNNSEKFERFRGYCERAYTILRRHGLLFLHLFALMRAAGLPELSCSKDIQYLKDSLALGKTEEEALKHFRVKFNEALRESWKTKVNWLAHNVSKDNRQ
T3 sequence (P27986 whole entry partner): as the sequence (P27986 whole entry partner) above
T1 sequence (P42336 whole entry): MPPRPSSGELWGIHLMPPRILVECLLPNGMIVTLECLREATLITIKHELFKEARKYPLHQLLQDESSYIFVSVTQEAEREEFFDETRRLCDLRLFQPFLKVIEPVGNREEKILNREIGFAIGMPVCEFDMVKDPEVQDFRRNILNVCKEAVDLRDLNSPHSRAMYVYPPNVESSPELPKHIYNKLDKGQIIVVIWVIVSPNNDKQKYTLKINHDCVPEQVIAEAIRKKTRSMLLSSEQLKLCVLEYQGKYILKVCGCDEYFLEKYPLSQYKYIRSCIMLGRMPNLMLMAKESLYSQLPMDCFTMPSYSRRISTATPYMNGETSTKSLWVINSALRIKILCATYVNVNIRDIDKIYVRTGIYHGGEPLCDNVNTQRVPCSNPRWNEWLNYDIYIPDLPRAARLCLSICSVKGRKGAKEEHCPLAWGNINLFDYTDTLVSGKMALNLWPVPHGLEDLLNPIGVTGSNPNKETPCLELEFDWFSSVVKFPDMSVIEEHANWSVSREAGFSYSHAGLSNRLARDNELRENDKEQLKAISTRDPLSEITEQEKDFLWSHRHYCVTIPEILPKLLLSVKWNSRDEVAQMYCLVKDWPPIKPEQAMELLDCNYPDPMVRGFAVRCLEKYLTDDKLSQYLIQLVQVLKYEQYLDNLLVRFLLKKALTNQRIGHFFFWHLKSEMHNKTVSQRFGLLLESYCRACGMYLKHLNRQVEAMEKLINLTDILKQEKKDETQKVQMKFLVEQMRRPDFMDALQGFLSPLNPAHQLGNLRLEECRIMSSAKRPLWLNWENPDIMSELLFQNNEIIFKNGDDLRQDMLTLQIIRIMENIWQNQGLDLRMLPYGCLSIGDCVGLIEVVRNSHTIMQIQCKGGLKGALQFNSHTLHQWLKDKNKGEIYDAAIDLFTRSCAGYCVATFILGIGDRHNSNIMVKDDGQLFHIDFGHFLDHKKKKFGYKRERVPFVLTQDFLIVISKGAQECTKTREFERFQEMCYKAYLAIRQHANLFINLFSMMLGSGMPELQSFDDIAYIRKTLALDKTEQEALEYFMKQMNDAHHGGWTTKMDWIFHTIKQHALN
T1 sequence (P27986 whole entry partner): as the sequence (P27986 whole entry partner) above

Row | SMILES | IC50 (PI3Kα) [nM] | IC50 (PI3Kγ) [nM] | IC50 (PI3Kδ) [nM] | IC50 (PI3Kβ) [nM] | IC50 ([1]; Homo sapiens, MCF7, 2 h) [nM] | IC50 [1] [nM]
1 | CNC(=O)C(C)Cn1cnc2ccc(-c3cnc(CO)c(NS(=O)(=O)c4ccc(F)cc4Cl)c3)cc2c1=O (single isomer, unassigned) [WX062] | 30 | 374 | 538 | > 10000 | – | –
2 | CNC(=O)C(C)Cn1cnc2ccc(-c3cnc(OC)c(NS(=O)(=O)c4cc(Cl)c(F)cc4F)c3)cc2c1=O (single isomer, unassigned) [WX095] | 4.77 | 68.3 | 29.6 | 390 | – | –
3 | COc1ncc(-c2ccc3ncn(CC(F)(F)C(N)=O)c(=O)c3c2)cc1NS(=O)(=O)c1ccc(F)cc1Cl [WX041] | 2.66 | 8.37 | 7.16 | 124 | – | –
4 | COc1ncc(-c2ccc3ncn(CC(C(N)=O)C(C)C)c(=O)c3c2)cc1NS(=O)(=O)c1ccc(F)cc1Cl (stereo not shown) [WX022] | 25.5 | – | – | 832 | 125 | –
5 | CCC(Cn1cnc2ccc(-c3cnc(OC)c(NS(=O)(=O)c4ccc(F)cc4Cl)c3)cc2c1=O)C(=O)NC (single isomer, unassigned) [WX107] | 18.1 | – | – | 1850 | – | 302
6 | Cc1ncc(-c2ccc3ncn(CCCC(=O)N4CCCC4)c(=O)c3c2)cc1NS(=O)(=O)c1ccc(F)cc1Cl [WX005] | 4.39 | 49.7 | 7.42 | 244 | – | –
7 | CNC(=O)C1(Cn2cnc3ccc(-c4cnc(OC)c(NS(=O)(=O)c5ccc(F)cc5Cl)c4)cc3c2=O)CC1 [WX202] | 6.71 | 44.1 | 4.36 | 88.5 | – | –
8 | COc1ncc(-c2ccc3ncn(CC(C)C(=O)NCC(F)(F)F)c(=O)c3c2)cc1NS(=O)(=O)c1ccc(F)cc1Cl (single isomer, unassigned) [WX059] | 11.2 | 14.2 | 13.2 | 391 | – | –
9 | CCC(CC)NC(=O)C(C)Cn1cnc2ccc(-c3cnc(OC)c(NS(=O)(=O)c4ccc(F)cc4Cl)c3)cc2c1=O (single isomer, unassigned) [WX056] | 19.6 | 155 | 61 | 5080 | – | –
10 | COc1ncc(-c2ccc3ncn(CC(C)C(=O)NCCF)c(=O)c3c2)cc1NS(=O)(=O)c1ccc(F)cc1Cl (single isomer, unassigned) [WX066] | 5.26 | 9.25 | 7.78 | 181 | – | –
11 | CNC(=O)C(C)Cn1cnc2ccc(-c3cnc(C)c(NS(=O)(=O)c4sc(C)nc4C)c3)cc2c1=O (single isomer, unassigned) [WX034] | 0.71 | 29.9 | 11.6 | 554 | – | –
12 | COCCNC(=O)C(C)Cn1cnc2ccc(-c3cnc(OC)c(NS(=O)(=O)c4ccc(F)cc4Cl)c3)cc2c1=O (single isomer, unassigned) [WX064] | 6.8 | 16.4 | 9.15 | 365 | – | –
13 | CNC(=O)C(C)Cn1cnc2ccc(-c3cnc(C)c(NS(=O)(=O)c4sc(C)nc4C)c3)cc2c1=O (single isomer, unassigned) [WX035] | 1.57 | 19.6 | 7.3 | 158 | – | –
14 | CCC(CC)NC(=O)C(C)Cn1cnc2ccc(-c3cnc(OC)c(NS(=O)(=O)c4ccc(F)cc4Cl)c3)cc2c1=O (single isomer, unassigned) [WX057] | 57.2 | 48.1 | 28.4 | 963 | – | –
15 | CNC(=O)CCCn1cnc2ccc(-c3cnc(C)c(NS(=O)(=O)c4ccc(F)cc4Cl)c3)cc2c1=O [WX002] | 2.84 | 33.7 | 12.4 | 216 | – | –
16 | Cc1ncc(-c2ccc3ncn(CCN(C)C)c(=O)c3c2)cc1NS(=O)(=O)c1ccc(F)cc1Cl [R010, reference compound] | 34.4 | 421 | 45.8 | 345 | – | –
17 | CNC(=O)C(C)Cn1cnc2ccc(-c3cnc(CO)c(NS(=O)(=O)c4ccc(F)cc4Cl)c3)cc2c1=O (single isomer, unassigned) [WX063] | 71.4 | 318 | 336 | 7230 | – | –
18 | Cc1nc(C)c(S(=O)(=O)Nc2cc(-c3ccc4ncn(CCCC(=O)N5CCCC5)c(=O)c4c3)cnc2C)s1 [WX007] | 1.49 | 29.1 | 1.85 | 159 | – | –
19 | CNC(=O)C(C)Cn1cnc2ccc(-c3cnc(OC)c(NS(=O)(=O)c4c(Cl)cccc4Cl)c3)cc2c1=O (single isomer, unassigned) [WX208] | 2.49 | – | – | 119 | – | –
20 | CNC[C@@H](C)Cn1cnc2ccc(-c3cnc(OC)c(NS(=O)(=O)c4ccc(F)cc4Cl)c3)cc2c1=O [R008, reference compound] | 12 | – | – | 121 | – | –
21 | CNC(=O)[C@H](C)Cn1cnc2ccc(-c3cnc(OC)c(NS(=O)(=O)c4cccc(C)c4Cl)c3)cc2c1=O [WX188] | 2.98 | – | – | 152 | – | –
